According to US20040171086A1, “Selective modulation of TLR-mediated biological activity” (3M Innovative Properties Company, priority 2003, published 2004):

Each molecule was assayed against T1, human TLR8 (Homo sapiens, UniProt Q9NR97) (assay: NFκB-luciferase reporter assay in HEK293 cells transfected with human TLR8 (HEK293-TLR8)). Conditions: HEK293-TLR8, 10 μM IRM, 16 hours.
T1 construct: expressed in transfected cells; host or cells: HEK293 (ATCC CRL-1573), pIRES vector, G-418 selected
T1 sequence (Q9NR97 27-1041): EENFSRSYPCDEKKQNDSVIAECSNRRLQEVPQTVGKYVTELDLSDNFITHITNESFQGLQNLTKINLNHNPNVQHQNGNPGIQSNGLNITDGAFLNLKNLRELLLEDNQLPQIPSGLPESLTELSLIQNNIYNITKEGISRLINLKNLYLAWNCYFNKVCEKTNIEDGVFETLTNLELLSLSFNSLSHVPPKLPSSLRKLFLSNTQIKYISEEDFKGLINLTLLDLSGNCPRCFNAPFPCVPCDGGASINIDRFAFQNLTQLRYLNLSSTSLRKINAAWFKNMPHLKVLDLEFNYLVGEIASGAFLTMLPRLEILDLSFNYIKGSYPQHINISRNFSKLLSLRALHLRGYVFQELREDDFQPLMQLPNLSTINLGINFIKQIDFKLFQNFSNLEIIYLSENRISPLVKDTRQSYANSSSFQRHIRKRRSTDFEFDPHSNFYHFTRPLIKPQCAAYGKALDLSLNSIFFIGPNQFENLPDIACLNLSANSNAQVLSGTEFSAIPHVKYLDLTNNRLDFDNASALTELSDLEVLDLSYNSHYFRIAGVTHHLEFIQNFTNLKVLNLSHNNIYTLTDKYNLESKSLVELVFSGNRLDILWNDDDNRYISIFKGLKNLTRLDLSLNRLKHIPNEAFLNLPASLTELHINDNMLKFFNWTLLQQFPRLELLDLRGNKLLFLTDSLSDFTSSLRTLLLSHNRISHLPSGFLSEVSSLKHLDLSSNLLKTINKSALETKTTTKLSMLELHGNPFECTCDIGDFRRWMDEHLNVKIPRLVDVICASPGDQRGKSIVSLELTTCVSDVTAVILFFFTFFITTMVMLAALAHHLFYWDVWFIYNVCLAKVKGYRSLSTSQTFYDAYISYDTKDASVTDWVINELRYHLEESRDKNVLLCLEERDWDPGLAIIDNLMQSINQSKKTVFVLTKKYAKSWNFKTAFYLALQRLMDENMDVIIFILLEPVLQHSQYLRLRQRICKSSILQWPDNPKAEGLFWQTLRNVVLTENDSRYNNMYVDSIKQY
Assay type: cell-based
Experimental: A compound was identified as increasing cellular activity mediated through a given TLR if it induced at least a two-fold increase in NFκB-induced luciferase signal compared to the control.
HEK293 medium was prepared from 90% Minimum Essential Medium (MEM) with 2 mM L-glutamine and Earle's Balanced Salt Solution (Invitrogen Corp., Rockville, Md.) adjusted to contain 1.5 g/L sodium bicarbonate, 0.1 mM non-essential amino acids, and 1.0 mM sodium pyruvate; 10% heat-inactivated fetal calf serum. HEK293 cells were cultured by incubating cells in HEK293 medium overnight at 37° C., 8% CO2.
The cells were co-transfected with (1) pIRES (BD Biosciences Clontech, Palo Alto, Calif.) either (a) unmodified (HEK293-vector), (b) containing an expressible human TLR7 gene (HEK293-TLR7), or (c) containing an expressible human TLR8 gene (HEK293-TLR8), and (2) NFκB-luc reporter (Stratagene, La Jolla, Calif.) in a 10:1 ratio with Fugene 6 transfection reagent (Roche Diagnostics Corp., Indianapolis, Ind.) following the manufacturer's instructions.
The cells were stimulated with 1 μL of IRM compounds at 1 mM in DMSO (final IRM concentration of 10 μM) or 1 μL DMSO as a control. The plates were then incubated an additional 16 hours at 37° C., 5% CO2. The luciferase signal was read using the LucLite kit (Packard Instrument Co., Meriden, Conn.). Luminescence was measured on an LMAX luminometer (Molecular Devices Corp., Sunnyvale, Calif.).

SMILES | TLR8: fold increase of NFκB-induced luciferase signal compared to a DMSO control [fold increase]
COCCc1nc2c(N)nc3ccccc3c2n1CCOCCN(C)C(=O)C1CCCCC1 [IRM3, N-(2-{2-[4-amino-2-(2-methoxyethyl)-1H-imidazo[4,5-c]quinolin-1-yl]ethoxy}ethyl)-N-methylcyclohexanecarboxamide] | 1.14
CCCCc1nc2c(N)nc3ccccc3c2n1CCCCCS(C)(=O)=O [IRM6, 2-butyl-1-[5-(methylsulfonyl)pentyl]-1H-imidazo[4,5-c]quinolin-4-amine] | 0.90
CCc1nc2c(N)nc3ccccc3c2n1CCCCNC(=O)C1CCCCC1 [IRM8, N-[4-(4-amino-2-ethyl-1H-imidazo[4,5-c]quinolin-1-yl)butyl]cyclohexanecarboxamide] | 0.99
CCOCc1nc2c(N)nc3c(c2n1CC(C)(C)O)CCCC3 [IRM16, 4-amino-2-ethoxymethyl-α,α-dimethyl-6,7,8,9-tetrahydro-1H-imidazo[4,5-c]quinoline-1-ethanol] | 8.64
COCCc1nc2c(N)nc3ccccc3c2n1CCOCCNC(=O)Nc1ccccc1 [IRM19, N-(2-{2-[4-amino-2-(2-methoxyethyl)-1H-imidazo[4,5-c]quinolin-1-yl)ethoxy}ethyl)-N′-phenylurea] | 7.25
CCC(C)NC(=S)NCCn1c(CCOC)nc2c(N)nc3ccccc3c21 (stereo not drawn) [IRM21, N-{2-[4-amino-2-(2-methoxyethyl)-1H-imidazo[4,5-c]quinolin-1-yl]ethyl}-N′-sec-butylthiourea] | 5.92

Continued, values first:

TLR8: fold increase of NFκB-induced luciferase signal compared to a DMSO control [fold increase] | SMILES
1.02 | CCOCc1nc2c(N)nc3ccccc3c2n1CC(C)C [IRM1, 2-(ethoxymethyl)-1-(2-methylpropyl)-1H-imidazo[4,5-c]quinolin-4-amine]
4.18 | CCc1nc2c(N)nc3ccccc3c2n1CCCCSc1cc(Cl)cc(Cl)c1 [IRM14, 1-{4-[(3,5-dichlorophenyl)thio]butyl}-2-ethyl-1H-imidazo[4,5-c]quinolin-4-amine]
7.37 | COCCc1nc2c(N)nc3c(c2n1CC(C)(C)NS(C)(=O)=O)CCCC3 [IRM22, N-{2-[4-amino-2-(2-methoxyethyl)-6,7,8,9-tetrahydro-1H-imidazo[4,5-c]quinolin-1-yl]-1,1-dimethylethyl}methanesulfonamide]
